Measured values published in patent US5550124A, “Use of peripheral-type benzodiazpine sites for treatment of CNS trauma or disease” (priority 1991, dated 1996).
Entries after “also recorded” stand apart in the source; their conditions may differ. Where two headings read alike, the source gives them in different places.

How the values were obtained:
[1] = tested on: platelet aggregation; conditions: cited from earlier work
[2] = stroke treatment; cited from earlier work
[3] = biological target: T1, peripheral-type BZ receptors (Rattus norvegicus, UniProt P16257); conditions: # data from Wang et al., Mol. Pharmacol. 25:349-351 (1984); cited from earlier work
T1 construct: displacement of ^3 H-RO5-4864 in brain homogenates; from tissue; host or cells: brain homogenates

[4] = Physical trauma (head injury) model, grip score 18 hours post-injury; format: in vivo, mice (male CF-1); conditions: by extrapolation from Table 3 binding data
[5] = tested on: NMDA receptor; conditions: in vivo; cited from earlier work
[6] = biological target: T1, peripheral-type BZ receptors; assay: Competitive binding assay, displacement of 3H-Ro5-4864 in brain homogenates
Description: Sprengel, R., et al., "Molecular cloning and expression of cDNA encoding a peripheral-type benzodiazepine receptor," J. Biol. Chem., 264:20415-20421 (1989).
Some of these compounds were further tested in in vivo studies.

[7] = Physical trauma (head injury) model, grip score 18 hours post-injury; format: in vivo, mice (male CF-1); conditions: for effectiveness in treatment of CNS trauma/damage (in words): grip score 18 h post trauma, FIGS. 1-8
Description: Two tests which can be readily performed are observation of grip score and observation of grip time in injured test animals. Another test for agonist activity is for decrease in mortality caused by the CNS injury. Mice can be treated to simulate CNS injury by a variety of methods: they can be deprived of oxygen by administration of KCN (Nauquier, A., et al., Arch. Int. Pharmacodyn., 249:330 (1981)) or by temporary tying-off of the carotid artery (Braughler, J. M. and Lainer, M. J., "The effects of large doses of methylprednisolone on neurologic recovery and survival in the Mongolian gerbil following three hours of unilateral carotid occlusion," CNS Trauma, 3:153-162 (1986)). Alternatively, blows can be administered to the head or the spinal cord of the test animal.
The following protocol was used:
The compound to be tested was weighed and suspended in a polyethylated castor oil solution ("Cremophore") (21% Cremaphore, 3% ethanol in 0.9% saline). The concentration of the solution was then adjusted for administration at a dose of 0.01 cc/gm body weight. For example, for a dose of 10 mg/Kg, the solution was made 1.0 mg/cc, and a 23 g mouse would receive 0.23 cc of this solution. The solution was sonicated for approximately 90 minutes, or until the compound is dissolved.
Male CF-1 mice (15-25 gm) were weighed and marked for identification purposes. Each individual mouse was restrained by grasping the dorsal skin of the neck until the mouse was still. An impounder was used to administer the trauma. The impounder consists of a weight suspended over the animal's head at a height sufficient to produce significant injury when dropped, and a means for immobilizing the animal (in this case, room to hold the animal in place). […] 62:882-887, 883. The mouse was positioned properly under the impounder, and the weight was released from its preset height (11 CM).
Immediately following injury, the mouse was placed under a heat lamp. At various times after injury, the drug was administered intravenously at the specified dose. The time of injury and the time of injection were recorded.
B) Measurement of Grip Score
Each mouse was evaluated 18 hours post-injury for neurological deficit. The delay of 18 hours provided time for any sedative effects of the compound to wear off. It also provided time for healing to occur. Mortality was also noted. A standard grip test, as described in Hall et al., J. Neurosurg. 68:456-461 (1988), was used. The apparatus consisted of a taut string suspended between two uprights, 60 cm in length and 40 cm above a padded table.
(§1) Each mouse was picked up by the tail and placed on the string. […] The tail was then released. Grip score was recorded based on the mouse's performance while on the string. The following criteria were used (taken from Hall, E. D., J. Neurosurg. 62:882-887 (1985)):
C) Statistical Analysis Results of the above test were analyzed for statistical significance using the Mann-Whitney U test. See R. V. Tallarida & R. B. Murray, MANUAL OF PHARMACOLOGIC CALCULATIONS WITH COMPUTER PROGRAMS, Springer-Verlag, N.Y., pp. 57-59 (1981). This test was used to compare each set of grip scores for a particular dose of a particular compound against the grip scores for the control group.

[8] = tested on: NMDA receptor; conditions: cats; cited from earlier work
[9] = tested on: peripheral-type BZ receptor; assay: Antagonism of Ro5 4864-induced improvement of grip score by PK 14105 following head injury; format: in vivo, mice; conditions: for GRIP TEST SCORE: tested 1 hour after injury
Description: Male CF-1 mice (15-25 gm) were weighed and marked for identification purposes. Each individual mouse was restrained by grasping the dorsal skin of the neck until the mouse was still. An impounder was used to administer the trauma. The impounder consists of a weight suspended over the animal's head at a height sufficient to produce significant injury when dropped, and a means for immobilizing the animal (in this case, room to hold the animal in place). An example of such an impounder can be found in Hall, E.D., "High Dose Glucocorticoid Treatment Improves Neurological Recovery in Head Injured Mice," J. Neurosurg. 62:882-887, 883. The mouse was positioned properly under the impounder, and the weight was released from its preset height (11 CM).
as §1
The inhibitory agonist alone does (row 2 as compared to row 1).
^a Animals were administered vehicle or PK 14105 i.v. 30 min prior to
^b Animals were administered vehicle or Ro5 4864 i.v. 5 min after hea
^c Animals were tested 1 hour after headinjury

[10] = in vivo; cited from earlier work

## O=C1C(CC[S+]([O-])c2ccccc2)C(=O)N(c2ccccc2)N1c1ccccc1 (centres unmarked) [sulfinpyrazone]
[1]
  effect on platelet aggregation: inhibit platelet aggregation

## C[C@]12CCC(=O)C=C1CC[C@@H]1[C@@H]2C(=O)C[C@@]2(C)[C@H]1CC[C@]2(O)C(=O)CO [cortisone]
[2]
  effect on neurologic outcome, morbidity or mortality in stroke: no difference in morbidity or mortality

## COc1ccc(C2=NCC(=O)N(C)c3ccc(Cl)cc32)cc1 [Ro5-6669, 7-Chloro-1,3-dihydro-4'-methoxy-1-methyl-5-phenyl-2H-1,4-benzodiazepin-2-one]
[3]
  IC50: 18.7 nM
[4]
  effectiveness for treatment of CNS trauma or disease (in words): effective

## O=C(O)C1CN(CCCP(=O)(O)O)CCN1 (centres unmarked) [CPP]
[5]
  adverse reactions: respiratory depression and elevated CO2 level

## CN1C(=O)CN=C(c2ccc(Cl)cc2)c2ccccc21 [Ro5-5115, 4'-Chloro-1,3-dihydro-1-methyl-5-phenyl-2H-1,4-benzodiazepin-2-one]
[3]
  IC50: 106 nM

## CN1C(=O)CN=C(c2ccc(Cl)cc2)c2cc(F)ccc21 [Ro5-6524, 4'-Chloro-7-fluoro-1,3-dihydro-1-methyl-5-phenyl-2H-1,4-benzodiazepin-2-one]
[3]
  IC50: 340 nM

## CN1C(=O)CN=C(c2ccc(Cl)cc2)c2cc(F)ccc21 [Ro5-6531, 4'-Chloro-7-fluoro-1,3-dihydro-1-methyl-5-phenyl-2H-1,4-benzodiazepin-2-one]
[6]; displacement of 3H-Ro5-4864 in brain homogenates, * data by procedure described herein
  IC50: 33.4 nM
[7]
  effectiveness in treatment of CNS trauma/damage (in words): effective

## Clc1ccccc1CN1CCc2sccc2C1 [ticlopidine]
[1]
  effect on platelet aggregation: inhibit platelet aggregation

## O=C(O)[C@H]1CN(C/C=C/P(=O)(O)O)CCN1 [D-CPPene]
[8]
  effect on blood pressure: induces hypotension

## CN1C(=O)CN=C(c2ccccc2Cl)c2cc(Cl)ccc21 [Ro5-3448, 2',7-Dichloro-1,3-dihydro-1-methyl-5-phenyl-2H-1,4-benzodiazepin-2-one]
[3]
  IC50: 35.2 nM
[4]
  effectiveness for treatment of CNS trauma or disease (in words): effective

## CC(=O)Oc1ccccc1C(=O)O [Aspirin]
[1]
  effect on platelet aggregation: inhibit platelet aggregation

## CN1C(=O)CN=C(c2c(Cl)cccc2Cl)c2cc(Cl)ccc21 [Ro7-5520, 2',6',7-Trichloro-1,3-dihydro-1-methyl-5-phenyl-2H-1,4-benzodiazepin-2-one]
[3]
  IC50: 93.1 nM

## CCC(C)N(C)C(=O)c1cc2ccccc2c(-c2cc([N+](=O)[O-])ccc2F)n1 (centres unmarked) [PK 14105, 1-(2-fluoro-5-nitrophenyl)-1-methyl-N(1-methyl-propyl)-3-isoquinoline carboxamide]
[6]
  binding affinity to peripheral-type BZ sites (in words): very strong binding affinity
[6]; displacement of 3H-Ro5-4864 in brain homogenates, * data by procedure described herein, read-out: IC50
  IC50: 4.5 nM
[7]
  effectiveness in treatment of CNS trauma/damage (in words): inactive in treating CNS damage
[7]; inferred from binding and lack of grip score effect
  functional class at the peripheral-type BZ receptor (in words): antagonist to the peripheral-type BZ receptor
[7]; moderate and high doses, FIG. 8
  grip scores compared with controls (in words): stay the same as those of the controls
[9]; 10 mg/kg i.v. 30 min preinjury, postinjury vehicle
  GRIP TEST SCORE: 1.40 ± 0.28
[9]; antagonist alone
  effect of the antagonist on grip score (in words): no statistically significant effect on grip score post trauma
[9]; antagonist with inhibitory agonist, 1 hour post-trauma
  effect on agonist-induced improvement of grip score (in words): prevents the agonist from improving grip score

## CN1C(=O)CN=C(c2ccc(Cl)cc2Cl)c2cc(Cl)ccc21 [Ro5-6902, 4',6',7-Trichloro-1,3-dihydro-1-methyl-5-phenyl-2H-1,4-benzodiazepin-2-one]
[3]
  IC50: 23.4 nM
[4]
  effectiveness for treatment of CNS trauma or disease (in words): effective

## CCN1C(=O)CN=C(c2ccc(Cl)cc2)c2cc(Cl)ccc21 [Ro5-6993, 4',7-Dichloro-1-ethyl-1,3-dihydro-5-phenyl-2H-1,4-benzodiazepin-2-one]
[3]
  IC50: 6.1 nM
[4]
  effectiveness for treatment of CNS trauma or disease (in words): effective

## C=CCN1C(=O)CN=C(c2ccc(Cl)cc2)c2cc(Cl)ccc21 [Ro5-6945, 1-Allyl-4',7-dichloro-1,3-dihydro-5-phenyl-2H-1,4-benzodiazepin-2-one]
[3]
  IC50: 14.3 nM
[4]
  effectiveness for treatment of CNS trauma or disease (in words): effective

## OC[C@@H](O)[C@@H](O)[C@H](O)[C@H](O)CO [mannitol]
[10]
  adverse effects: severe rebound cerebral edema

## CC(C)(C)OC(=O)c1ncn2c1[C@@H]1CCCN1C(=O)c1c(Br)cccc1-2 [Rol6-6028]
[6]
  IC50: > 10000 nM
[7]
  effectiveness in treatment of CNS trauma/damage (in words): inactive in the treatment of CNS damage

## CN1C(=O)CN=C(c2ccc(Cl)cc2Cl)c2cc(Cl)ccc21 [Ro5-6900, 2',4',7-Trichloro-1,3-dihydro-1-methyl-5-phenyl-2H-1,4-benzodiazepin-2-one]
[3]
  IC50: 10 nM
[4]
  effectiveness for treatment of CNS trauma or disease (in words): effective

## C[C@@H]1C[C@H]2[C@@H]3CCC4=CC(=O)C=C[C@]4(C)[C@@]3(F)[C@@H](O)C[C@]2(C)[C@@]1(O)C(=O)CO [dexamethasone]
[2]
  effect on neurologic outcome, morbidity or mortality in stroke: no difference in morbidity or mortality
[10]
  adverse effects: serious exacerbations of diabetes mellitus

## CN1C(=O)CN=C(c2ccc(Cl)cc2)c2cc(Cl)ccc21 [Ro5-4864, 4',7-Dichloro-1,3-dihydro-1-methyl-5-phenyl-2H-1,4-benzodiazepin-2-one]
[7]
  effectiveness in treatment of CNS trauma/damage (in words): effective
[9]; preinjury 10 mg/kg PK 14104 (sic) plus postinjury 0.3 mg/kg Ro5 4864
  GRIP TEST SCORE: 0.93 ± 0.21
[9]; preinjury vehicle, 0.3 mg/kg i.v. 5 min after injury, vehicle/vehicle 1.13 ± 0.27, P<0.05
  GRIP TEST SCORE: 1.84 ± 0.24

## CN1C(=O)CN=C(c2ccccc2Cl)c2ccccc21 [Ro5-4608, 2'-Chloro-1,3-dihydro-1-methyl-5-phenyl-2H-1,4-benzodiazepin-2-one]
[3]
  IC50: 215 nM

## CN1C(=O)CN=C(c2ccc(F)cc2)c2ccccc21 [Ro5-5122, 4'-Fluoro-1,3-dihydro-1-methyl-5-phenyl-2H-1,4-benzodiazepin-2-one]
[3]
  IC50: 442 nM

## O=C1CN=C(c2ccccc2Cl)c2cc([N+](=O)[O-])ccc2N1 [Clonazepam]
[6]
  IC50: 9180 nM
[7]
  effectiveness in treatment of CNS trauma/damage (in words): inactive in the treatment of CNS damage

## CN1C(=O)CN=C(c2ccccc2)c2ccccc21 [Ro5-3464, 1,3-Dihydro-1-methyl-5-phenyl-2H-1,4-benzodiazepin-2-one]
[6]
  IC50: 1230 nM
  binding affinity to peripheral-type BZ sites (in words): very high IC50 values
[7]
  effectiveness in treatment of CNS trauma/damage (in words): non-effective; also recorded: inactive in the treatment of CNS damage

## heparin
[10]
  adverse effects: high risk of brain and/or systemic hemorrhage
